Experimental data taken from publication PMC9140716, “Light-Control over Casein Kinase 1δ Activity with Photopharmacology: A Clear Case for Arylazopyrazole-Based Inhibitors” (International Journal of Molecular Sciences, 2022).
Like-named read-outs stand apart in the source and are kept apart here.

Experiments:
[1] = Reductive stability (DTT), UPLC-MS after incubation in buffer; assay type: physicochemical; conditions: 10 µM, 0.5 mM DTT, 10 mM MgCl2, pH 7.4, 2 h at 30 °C
Protocol: (§1) Lastly, the chemical stability of the photoswitches was evaluated in the kinase assay buffer. To avoid the oxidation of the kinase substrate peptide, the buffer contains dithiothreitol (DTT) as a reducing agent. Therefore, we presumed that performing multiple switching cycles in this buffer would allow us to gain insight into both the photochemical- and chemical stability of the three photoswitches. […] We hypothesise that the instability of DK398 in the assay buffer was caused due to either poor solubility or interactions with buffer components, such as the BSA protein.
Reductive stability (DTT)
Figure S8. UV-traces (λ = 312 nm) of UPLC-MS measurements after incubation of DK518, DK398 and
DK557 in buffer (10 µM, 0.5 mM DTT, 10 mM MgCl2, pH 7.4) for 2h at 30 °C. Traces show the presence of […]

[2] = Reversible switching cycles in kinase assay buffer containing DTT ((photo)chemical stability); assay type: physicochemical; conditions: kinase assay buffer with 0.5 mM DTT, 365 nm / 445 nm irradiation
Protocol: as §1
Photochemical evaluation. UV-Vis absorption spectra were recorded on an Agilent 8453 UV-Visible spectrophotometer equipped with an irradiation set-up containing a 365 and 445 nm LED. Stock solutions of DK398, DK518, and DK557 were prepared in DMSO (2.0 mM) and were diluted 100-fold in kinase assay buffer (40 mM Tris-HCl, 10 mM MgCl2, 0.5 mM DTT, 0.1 mg/mL BSA, pH 7.4, final 1% DMSO) or DMSO for spectroscopic characterisation. Reversible switching cycles were performed in a kinase assay buffer to evaluate the (photo)chemical stability. All three compounds were irradiated using UV light (λmax = 365 nm) to perform trans-to-cis isomerisation and blue light (λmax = 445 nm) for the back-reaction. The irradiation time was adjusted to the compound until the corresponding PSS was achieved.
Figure 2 (a) Structures and irradiation-dependent interconversion of the trans and cis isomers of DK398, DK518, and DK557; (b) UV-Vis absorption spectra of DK398, DK518, and DK557 in kinase assay buffer (10–20 µM, 4.8% DMSO) in the thermally adapted (all trans) and irradiated forms; (c) isomer distribution in the photostationary state (pie charts). The pink region represents the percentage of cis-isomer in the PSD as determined by ^1H-NMR (DMSO-d6). […]

CK1δ [3] = target: T1, CK1δ (Homo sapiens, UniProt P48730); experiment: In vitro kinase assay (ATP consumption, Kinase Glo), 'dark' and UV-irradiated 'light' samples; assay type: biochemical; conditions: for degree of CK1δ inhibition reached in dose-response curve: 'light' and/or 'dark' samples; for difference in activity (potency) between 'light' and 'dark' states: irradiated (365 nm) vs thermally adapted sample, 'light' more potent
Protocol: After evaluating the photochemical properties of the three photoswitches DK398, DK518, and DK557 in detail, an in vitro kinase activity assay was performed. In this assay, the inhibitory activity towards CK1δ of both dark (all-trans) and irradiated (cis-enriched) samples was evaluated to construct dose–response curves for both states. During the enzymatic reaction (2 h), samples were either kept in the dark or irradiated with UV light (λmax = 365 nm). UV light irradiation itself was confirmed to have no effect on CK1δ activity (Figure S9). After the enzymatic reaction, ATP consumption was measured to determine enzyme activity. The ATP consumption of the samples containing the photoswitchable inhibitors was compared to the ATP consumption of a DMSO control to assess the degree of enzyme inhibition.
In vitro kinase assay. Stock solutions (2.0 mM) of the photoswitchable LH846 inhibitors were prepared in DMSO and thermally adapted by heating to c.a. 100 °C for 1 min. Dilutions were made in DMSO to reach 21-fold concentrated solutions of the desired concentrations to be tested in the assay. The assays were performed on white, solid-bottom 384-well plates and electronic, hand-held Gilson pipettes were used. The total volume for the reaction was 10.5 µL. All solutions were applied to the well plate in a dark room to prevent ambient-light-induced photo-isomerisation. Firstly, a solution of CK1δ and substrate peptide RKKKAEpSVASLTSQCSYSS (Anaspec Fermont, CA, USA, custom made) in a kinase assay buffer was aliquoted into the bottom of the wells (9 µL). Next, the 21-fold concentrated solutions of the compound (0.5 μL, final 4.8% DMSO) was pipetted into the bottom of the wells. Lastly, a solution of ATP in water (50 µM, 1 μL) was pipetted into the upper corners of each well (final concentration 4.8 µM). Final concentrations of CK1δ and the substrate peptide were 2 ng/µL and 50 µM, respectively. The enzymatic reaction was started by spinning down the plate (1800× g, 2 min). By employing this method, all reactions were started at the same time, minimising variance between different samples. During the assay, ‘light’ samples were irradiated with UV light (λ = 365 nm, UV lamp Spectroline, ENB-280/FE, 1 × 8 Watt) for the full duration of the assay (2 h). The wells of ‘dark’ samples were carefully covered with an aluminium sticker. After the incubation period (2 h at 30 °C), 10 μL Kinase Glo® (Promega, Madison, WI, USA) was applied into the wells and the luminescent signal was recorded by a plate reader (BioTek Synergy H1). All measurements were carried out in triplicate. Enzyme activity was determined by comparing the ATP consumption of the samples containing the LH846-analogues to that of a DMSO control, set as 100% enzyme activity.

CK1δ [4] = target: T1, CK1δ; set-up: method as in PMID 21954091; conditions: parent inhibitor; read-out: IC50 of LH846 towards CK1δ; cited from earlier work
[5] = 'dark' (all-trans, thermally adapted) samples, 2 h at 30 °C, 4.8 µM ATP, read-out: 50 % inhibition: dark (absolute IC50)
[6] = 'light' (cis-enriched) samples irradiated with UV light 365 nm for the full 2 h, 30 °C, 4.8 µM ATP, read-out: 50 % inhibition: light (absolute IC50)

T1 sequence (P48730 whole entry): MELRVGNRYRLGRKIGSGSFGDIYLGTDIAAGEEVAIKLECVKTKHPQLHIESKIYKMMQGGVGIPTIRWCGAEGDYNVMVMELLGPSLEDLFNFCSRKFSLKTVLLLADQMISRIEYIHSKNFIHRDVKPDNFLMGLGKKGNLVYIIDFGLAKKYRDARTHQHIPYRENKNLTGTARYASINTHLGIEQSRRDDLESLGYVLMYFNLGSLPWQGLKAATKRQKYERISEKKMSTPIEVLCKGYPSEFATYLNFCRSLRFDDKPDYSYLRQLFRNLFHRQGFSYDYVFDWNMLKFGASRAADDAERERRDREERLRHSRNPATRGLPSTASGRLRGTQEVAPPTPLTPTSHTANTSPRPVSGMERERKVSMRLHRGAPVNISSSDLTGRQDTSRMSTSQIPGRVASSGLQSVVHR

Structure (SMILES)	stability against reduction by DTT [1]	stability over multiple switching cycles [2]	IC50 (CK1δ [3]; [5])	IC50 (CK1δ [3]; [6])	degree of CK1δ inhibition reached in dose-response curve (CK1δ [3])	difference in activity (potency) between 'light' and 'dark' states (CK1δ [3])	IC50 (CK1δ [3]; both 'light' and 'dark' samples, read-out: IC50 values towards CK1δ)	IC50 (CK1δ [4])
Cc1cc2sc(NC(=O)Cn3nc(C)c(/N=N/c4ccccc4)c3C)nc2cc1Cl [DK557]	No reduction products (hydrazine or aniline) were observed	excellent stability	11.6 µM	1.2 µM	complete enzyme inhibition upon irradiation	~10 fold	–	–
Cc1cc2sc(NC(=O)Cc3cccc(/N=N/c4ccccc4)c3)nc2cc1Cl [DK518]	No reduction products (hydrazine or aniline) were observed	excellent stability	0.34 µM	0.35 µM	achieved complete enzyme inhibition	completely abolished the difference in activity	~0.35 µM	–
Cc1cc2sc(NC(=O)Cc3ccccc3)nc2cc1Cl [LH846]	–	–	–	–	–	–	–	0.29 µM
Cc1cc2sc(NC(=O)Cc3ccc(/N=N/c4ccccc4)cc3)nc2cc1Cl [DK398]	No reduction products (hydrazine or aniline) were observed	poor stability	> 10 µM	~1 µM	incomplete inhibition	~10 fold	–	–
